Measurements published in patent publication US20130165417A1, “METHODS AND COMPOSITIONS FOR TREATING ACE2-RELATED DISORDERS” (UNIVERSITY OF FLORIDA RESEARCH FOUNDATION, priority 2010, published 2013).
Entries after “also recorded” stand apart in the source; their conditions may differ.

Experiments:
[1] = target: T1, Recombinant ACE (Homo sapiens, UniProt P12821); assay: ACE activity assay with fluorogenic peptide substrate; type: biochemical; settings: FIG. 2
T1 construct: purchased R&D Systems, Minneapolis, Minn; 929-ZN-10
T1 sequence (P12821 30-1306): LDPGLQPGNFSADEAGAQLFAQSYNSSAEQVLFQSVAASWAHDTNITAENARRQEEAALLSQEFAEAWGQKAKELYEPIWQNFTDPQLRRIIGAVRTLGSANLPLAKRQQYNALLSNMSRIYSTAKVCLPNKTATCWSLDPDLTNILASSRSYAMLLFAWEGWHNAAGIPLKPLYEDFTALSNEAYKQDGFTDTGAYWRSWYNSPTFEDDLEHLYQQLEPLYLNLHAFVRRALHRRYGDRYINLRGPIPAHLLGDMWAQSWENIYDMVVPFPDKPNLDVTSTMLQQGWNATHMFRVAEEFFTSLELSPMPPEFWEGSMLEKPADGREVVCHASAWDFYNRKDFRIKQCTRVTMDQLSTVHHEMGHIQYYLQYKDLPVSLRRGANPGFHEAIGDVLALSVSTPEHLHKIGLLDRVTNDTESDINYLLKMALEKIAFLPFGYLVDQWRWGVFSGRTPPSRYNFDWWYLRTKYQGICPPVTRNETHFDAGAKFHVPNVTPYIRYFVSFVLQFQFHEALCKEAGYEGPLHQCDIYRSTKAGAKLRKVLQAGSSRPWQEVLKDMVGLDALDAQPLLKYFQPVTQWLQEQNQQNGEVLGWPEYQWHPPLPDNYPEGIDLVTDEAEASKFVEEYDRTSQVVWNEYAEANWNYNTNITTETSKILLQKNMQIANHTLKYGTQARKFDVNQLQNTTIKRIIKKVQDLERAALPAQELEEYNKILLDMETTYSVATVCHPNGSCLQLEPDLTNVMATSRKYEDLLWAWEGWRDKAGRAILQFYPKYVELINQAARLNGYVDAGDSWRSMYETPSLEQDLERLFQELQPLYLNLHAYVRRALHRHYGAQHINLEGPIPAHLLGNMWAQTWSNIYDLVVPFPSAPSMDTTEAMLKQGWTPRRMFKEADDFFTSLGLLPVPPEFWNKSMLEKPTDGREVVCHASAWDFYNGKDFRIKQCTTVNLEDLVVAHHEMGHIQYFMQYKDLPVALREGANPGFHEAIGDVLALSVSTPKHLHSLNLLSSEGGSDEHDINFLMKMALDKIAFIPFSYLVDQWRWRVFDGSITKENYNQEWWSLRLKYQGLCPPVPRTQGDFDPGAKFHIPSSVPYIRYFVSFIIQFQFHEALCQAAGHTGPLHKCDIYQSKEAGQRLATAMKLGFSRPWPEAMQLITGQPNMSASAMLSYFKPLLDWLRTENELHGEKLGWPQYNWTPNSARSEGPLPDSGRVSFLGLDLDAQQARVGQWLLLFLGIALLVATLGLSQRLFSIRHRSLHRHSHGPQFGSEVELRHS
Procedure: (§1) Recombinant ACE and ACE2 are obtained in purified form from R&D Systems, Minneapolis, Minn. (catalog ID: 929-ZN-10 and 933-ZN-10, respectively). Substrates for ACE (fluorogenic peptide V, Mca-[…](Dnp)-OH, catalog ID: ES005), and for ACE2 (fluorogenic peptide VI, Mca-YVADAPK(Dnp)-OH, catalog ID: ES007) are obtained from R&D systems. Dry compounds are resuspended in 100% DMSO to prepare 100 mM stock solutions, according to the amount of compound and its molecular weight. Gentle heating to 60-80° C. is carried out to assist their solubilization. Compounds are further diluted to 50 mM stocks if clearly difficult to dissolve.
(§2) Activity of ACE and ACE2 are measured with a Spectra Max Gemini EM Florescence Reader (Molecular Devices). The enzyme removes the c-terminal dinitrophenyl moiety that quenches the inherent fluorescence of its 7-methoxycoumain group, resulting in an increase in fluorescence in the presence of enzyme activity. Fluorescence is measured with excitation and emission spectra of 328 nm and 392 nm, respectively. Reaction mixtures are prepared in 100 μl volumes and different concentrations of compound are tested against 10 μM substrate. 10 nM enzyme in 100 mM NaCl, 75 mM Tris, 0.5 μM ZnCl2, at pH 7.4. Samples are read every 15-20 seconds for at least 30 minutes immediately after the addition of fluorogenic peptide substrate at 37° C. […]

[2] = test system: Wistar Kyoto rats (WKYs); assay: Direct blood pressure and heart rate measurement after IV bolus, WKY rats; type: in vivo, rat
Procedure: (§3) Male Wistar-Kyoto (WKY) rats and spontaneously hypertensive rats (SHRs) were purchased from Charles River Laboratories (Wilmington, Mass., USA). All procedures were performed in conformity with approved Institutional Animal Care and Use Committee protocols and University of Florida regulations.
(§4) Cannulation of the animals (WKY rats and SHRs) was performed 24 h prior to the start of the drug administration and direct blood pressure (BP) measurement. Animals were anesthetized with a mixture of ketamine, xylazine, and acepromazine (30, 6, and 1 mg/kg, respectively). The two types of the cannulae used were: 1) a polyethylene cannula (PE-50, Clay Adams) introduced into the carotid artery for direct BP measurements and 2) a silicone elastomer cannula (Helix Medical) introduced into the descending jugular vein for acute intravenous (IV) bolus injections of the drug. Both cannulae were filled with heparin saline (40 U/mL, Sigma), and sealed with stylets. The IV drug administration of diminazene aceturate (DIZE) (LKT laboratories, St. Paul, Minn., USA) and the dose-response curves in WKYs and SHRs were obtained in awake, freely moving animals after a 24 h recovery period. Doses of diminazene aceturate (DIZE) (0.04, […], 0.6, 1.25, 2.5, 5 and 10 mg/kg) were administered as an IV bolus via the jugular cannula, and BP data recording was interfaced by a PowerLab (ADlnstruments) signal transduction unit. The data analysis was done using the Chart program (PowerLab system).

[3] = test system: spontaneously hypertensive rats (SHRs); assay: Direct blood pressure and heart rate measurement after IV bolus, SHRs; type: in vivo, rat
Procedure: as §3, §4

[4] = test system: monocrotaline (MCT) treated rats; assay: Monocrotaline (MCT) treated rats, pulmonary hypertension; type: in vivo, rat
[5] = test system: models of pulmonary hypertension; assay: Two models of pulmonary hypertension; type: in vivo
[6] = test system: myocardial infarction; assay: Myocardial infarction model of cardiac disease; type: in vivo
[7] = test system: Endothelial progenitor cells harvested from pulmonary hypertensive patients; assay: Function of endothelial progenitor cells from pulmonary hypertensive patients; type: cell-based, human
Source text: Another important finding is the effect of DIZE on stem cell function. Endothelial progenitor cells harvested from pulmonary hypertensive patients are dysfunctional and have decreased ability to repair vascular damage induced by the disease.

[8] = target: T2, ACE2 (Homo sapiens, UniProt Q9BYF1); assay: ACE2 activity assay with fluorogenic peptide substrate; type: biochemical; parameters: purchased R&D Systems, Minneapolis, Minn; 933-ZN-10
Procedure: as §1, §2
Target sequence in this assay (Q9BYF1 18-740 limits assumed): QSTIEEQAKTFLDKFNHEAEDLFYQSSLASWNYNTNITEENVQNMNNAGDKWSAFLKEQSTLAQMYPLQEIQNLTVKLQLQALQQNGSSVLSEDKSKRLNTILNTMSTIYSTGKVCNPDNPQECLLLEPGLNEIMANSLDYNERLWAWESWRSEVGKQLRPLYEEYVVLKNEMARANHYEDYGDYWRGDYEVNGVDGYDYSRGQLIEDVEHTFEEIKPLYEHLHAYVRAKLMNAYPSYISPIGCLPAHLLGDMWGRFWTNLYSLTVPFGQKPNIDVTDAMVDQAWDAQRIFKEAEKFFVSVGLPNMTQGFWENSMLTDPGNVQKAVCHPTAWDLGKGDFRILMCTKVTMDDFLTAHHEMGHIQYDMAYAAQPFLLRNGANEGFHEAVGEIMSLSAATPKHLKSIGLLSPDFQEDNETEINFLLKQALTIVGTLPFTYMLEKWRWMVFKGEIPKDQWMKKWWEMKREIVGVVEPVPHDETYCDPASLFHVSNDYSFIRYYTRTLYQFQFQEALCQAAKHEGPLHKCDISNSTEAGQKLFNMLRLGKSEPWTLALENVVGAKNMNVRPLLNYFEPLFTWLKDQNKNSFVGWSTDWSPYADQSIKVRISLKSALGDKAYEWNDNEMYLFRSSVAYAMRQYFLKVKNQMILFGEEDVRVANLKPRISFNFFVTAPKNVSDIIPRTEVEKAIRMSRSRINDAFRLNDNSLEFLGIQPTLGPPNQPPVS

[9] = target: T2, ACE2; settings: Donoghue et al. 2000, Tipnis et al. 2000; cited from earlier work
Target sequence in this assay (Q9BYF1 18-805): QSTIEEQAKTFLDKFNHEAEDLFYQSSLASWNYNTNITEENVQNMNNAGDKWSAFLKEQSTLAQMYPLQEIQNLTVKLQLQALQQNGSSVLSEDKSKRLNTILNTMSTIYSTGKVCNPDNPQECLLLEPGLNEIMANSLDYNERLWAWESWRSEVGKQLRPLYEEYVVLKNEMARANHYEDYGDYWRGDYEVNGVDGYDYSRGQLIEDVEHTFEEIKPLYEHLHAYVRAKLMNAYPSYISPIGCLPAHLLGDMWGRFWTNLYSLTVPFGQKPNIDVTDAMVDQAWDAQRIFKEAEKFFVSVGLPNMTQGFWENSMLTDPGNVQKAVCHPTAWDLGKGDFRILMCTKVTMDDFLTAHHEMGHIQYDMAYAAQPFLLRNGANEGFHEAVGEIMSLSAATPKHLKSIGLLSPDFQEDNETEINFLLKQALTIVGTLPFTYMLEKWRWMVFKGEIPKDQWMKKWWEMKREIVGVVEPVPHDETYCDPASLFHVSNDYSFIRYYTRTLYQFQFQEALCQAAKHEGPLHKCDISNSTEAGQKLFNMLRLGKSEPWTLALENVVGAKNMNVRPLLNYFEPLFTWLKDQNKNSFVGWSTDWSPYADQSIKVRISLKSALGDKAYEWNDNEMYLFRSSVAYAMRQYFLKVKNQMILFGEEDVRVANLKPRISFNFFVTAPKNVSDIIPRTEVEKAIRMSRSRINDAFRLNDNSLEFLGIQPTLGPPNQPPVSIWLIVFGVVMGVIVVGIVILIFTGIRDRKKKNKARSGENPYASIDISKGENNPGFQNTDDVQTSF

For `N=C(N)c1ccc(N=NNc2ccc(C(=N)N)cc2)cc1` [DIZE, 4,4′-(1-Triazene-1,3-diyl)bis(benzenecarboximidamide)], the “effect on ACE activity” value [1] was “increases ACE2 but not ACE activity”, the “reduction of mean arterial pressure (MAP)” value ([2]; WKY rats, 5 mg/kg intravenous, n=6) was 50±9 mmHg and the “effect on heart rate” value ([2]; WKY, acute IV bolus) was “does not affect the heart rate”. For the same compound, the “change in mean arterial pressure (MAP)” value ([2]; WKYs, intravenous administration, result in words) was “transient and dose dependent decrease”, the “effect on heart rate” value ([3]; SHR, acute IV bolus) was “does not affect the heart rate” and the “reduction of mean arterial pressure (MAP)” value ([3]; SHRs, 5 mg/kg intravenous, n=6) was 85±11 mmHg. For the same compound, the “change in mean arterial pressure (MAP)” value ([3]; SHRs, intravenous administration, result in words) was “transient and dose dependent decrease; also recorded: greater reduction in blood pressure in SHRs compared to WKY control rats”, the “MCT-induced right ventricular fibrosis” value ([4]; FIG. 6) was “causes reversal” and the “Right Ventricular Systolic Pressure (RVSP) and Right Ventricular Hypertrophy (RVH), prevention” value ([4]; MCT treated rats, FIG. 4) was “prevents increase”. For the same compound, the “RVSP and RVH, reversal” value ([4]; MCT-treated rats, FIG. 5) was “reverses increases”, the progression of pathophysiology ([5]; administered after the development of pulmonary hypertension) was “arrested” and the “development of the disorder” value ([5]; pretreatment) was “completely prevents the development of these disorders”. The fibrosis ([5]; pretreatment) was “virtually absent”, the pulmonary pressure ([5]; pretreatment) was “nearly normalized” and the MI-induced cardiac dysfunctions ([6]; FIG. 3) was “attenuates”. For the same compound, the cardiac function ([6]; pretreatment) was “significantly improves cardiac function”, the “development of the disorder” value ([6]; pretreatment) was “completely prevents the development of these disorders” and the infarct area ([6]; pretreatment) was “reduces infarct area”. The “endothelial progenitor cell dysfunction (ability to repair vascular damage)” value [7] was “significantly improves this dysfunction”, the “maximal increase in ACE2 activity (Vmax)” value ([8]; observed with 50 μM) was 2.3 fold and the “effect on ACE2 activity” value ([8]; result in words) was “dose-dependent increase in ACE2 activity; also recorded: enhances specifically the ACE2 enzyme activity”.
In the case of `C[C@H](CS)C(=O)N1CCC[C@H]1C(=O)O` [captopril], the “effect on activity of ACE2” value [9] is given as “do not significantly affect”.
